Values quoted from earlier work as cited in patent US9642356B2, “Maturation or ripening inhibitor release from polymer, fiber, film, sheet or packaging” (Cellresin Technologies, LLC, priority 2009, dated 2017).

Legend:
[1] = test system: ethylene generation
[2] = test system: ethylene binding site

| SMILES | activity for inhibiting ethylene generation [1] | blocking of ethylene binding [2] |
| --- | --- | --- |
| C=CCC [Example 1-butene, 1-butene] | at least some measurable activity | – |
| C1=CCC=C1 [Cyclopentadiene] | – | effective blocking agent for ethylene binding |
| CC1=CC1 [Example 1-MCP, 1-methylcyclopropene] | at least some measurable activity | – |
